Publication PMC12196476, “New Nitrogen-, Oxygen-, and Sulfur-Containing Heterocyclic Compounds as Anti-Colon Cancer Agents: Synthesis, Multitargeted Evaluations, Molecular Docking Simulations and ADMET Predictions” (Pharmaceuticals, 2025)

Key:
[1] = Cell viability, LDH release assay, normal HUVECs; details: human, normal HUVECs, Mean % of viable cells ± SD, HUVEC
[2] = test system: LoVo colon carcinoma cells; assay: Cell viability, LDH release assay, LoVo; details: Homo sapiens, LoVo, 48 h
[3] = test system: HCT-116 cells; assay: Cell cycle assay (PI flow cytometry), HCT-116; assay type: cell-based, human; details: 30 µg/mL, 48 h, mean of n = 2 (Figure 1E); untreated control 47.37 ± 1.68%
Description: Cell proliferation depends on orderly progression through the phases of the cell cycle (G1−S−G2−M). Cytotoxic agents can impair the integrity of DNA, leading to checkpoint arrest at G1/S or G2/M, which subsequently blocks proliferation. To evaluate the impact of compound 3d on cell cycle distribution, colon carcinoma cells were treated with 30 µg/mL of 3d for 48 h, followed by DNA content analysis using flow cytometry. […] In contrast, in HCT-116 cells, 3d caused an accumulation in the G1 phase, reaching 60.17 ± 1.44% versus 47.37 ± 1.68% in untreated cells (Figure 1E). […]
(§1) medium served used as negative and positive controls, respectively. Percentages of viable cells […]
(§2) wells (final concentration of 100 μg/mL), compared to the negative control, and expressed as mean value (%) ± SD from two replicates. Graphing dose-response curves representing the compound […]
(§3) (HUVECs) at final concentration of 100 μg/mL . HUVECs were grown in Dulbecco’s Modified Eagle’s Medium supplemented with 10% FBS, 2 mM glutamine (Sigma Aldrich), 100 units/mL penicillin and […] streptomycin (Life Technologies; Paisley, UK).
(§4) S3.2.5. Cell cycle assay.
(§5) HCT-116 and LoVo cultures upon treatment with compound 3d. HCT-116 and LoVo carcinoma […]
(§6) μg/mL for 48 h. […] Then, cells […]
(§7) of stained cancerous cells were determined. […]
carcinoma cells treated with compound 3d was assessed using the TMRE Mitochondrial Membrane

[4] = test system: LoVo cells; assay: Mitochondrial membrane potential (TMRE staining), LoVo; assay type: cell-based, human; details: 30 µg/mL, 48 h
Description: To assess mitochondrial integrity, TMRE staining was used to measure ΔΨm.
The mitochondrial transmembrane potential was measured using a tetramethylrhodamine, ethyl ester (TMRE) mitochondrial membrane potential assay kit. […]
as §1, §2, §3, §4, §5, §6
were fixed by mixing […] of 90% cold ethanol and stained with propidium iodide (PI) for 1 h at 37 °C. […]
as §7
carcinoma cells treated with compound 3d was assessed using the TMRE Mitochondrial Membrane […]
for TMRE staining. TMRE was excited using a 488 nm laser and detected in the FL2 channel at 575 […]
S3.2.9. Quantification of the Expression Levels of Bax, Bcl-2 and Caspase-3 Genes […]

`COc1cc(/C=N/c2ncnc3sc4c(c23)CCCC4)cc(OC)c1OC` [Compound 3d, (E)-N-(5,6,7,8-Tetrahydrobenzo[4,5]thieno[2,3-d]pyrimidin-4-yl)-1-(3,4,5-trimethoxyphenyl)methanimine] gave a viability at 48 h, 100 µg/mL [1] of roughly 90%, a viability at 100 µg/mL ([2]; read-out: Mean % of viable cells ± SD, LoVo, 100 µg/mL, 48 h, LDH release assay) of less than 29% and an IC50 ([2]; read-out: Mean IC50 Values in µM ± SD, LoVo cells) of 157 µM. The “% of Cell population, HCT-116: %G1” value [3] was 60.17 ± 1.44% and the “Reduction of mitochondrial membrane potential (ΔΨm), LoVo cells” value [4] was 60.23 ± 1.87%.
